{"source": "paper PMC3822934", "about": "(Journal of Cellular and Molecular Medicine, 2012)", "experiment": "Comparison of blood glucose lowering with glibenclamide", "format": "in vivo", "conditions": "data not shown", "data": [{"smiles": "COc1ccc(Cl)cc1C(=O)NCCc1ccc(S(=O)(=O)NC(=O)NC2CCCCC2)cc1", "note": "[glibenclamide]", "values": [{"measurement": "blood glucose lowering activity compared with EH-36", "value": "comparable blood glucose lowering activities"}, {"measurement": "onset of the effect compared with EH-36", "value": "faster"}]}]}
